Where “and” joins values, the source holds several entries; their conditions need not be identical. Equal entries are not always repeated. Toxic doses and inconclusive results are not listed.
System: P388 leukemia ip, CD2F1 mice, survival T/C
Test: NCI In Vivo Anticancer Drug Screen. Data for tumor model P388 Leukemia (intraperitoneal) in CD2F1 (CDF1) mice
Conditions: endpoint: median survival time, higher = longer survival
In short: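 Mice carrying the transplanted tumor received test compound or vehicle. Survival was recorded in each group, and the value is the treated-group measurement divided by that of the vehicle-treated control group.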

[1] = dose: 12.5 mg/kg/injection, schedule: Q01DX009 (ip), vehicle: saline with Tween-80
[2] = dose: 25.0 mg/kg/injection, schedule: Q01DX009 (ip), vehicle: saline with Tween-80
[3] = dose: 50.0 mg/kg/injection, schedule: Q01DX009 (ip), vehicle: saline with Tween-80
[4] = dose: 100.0 mg/kg/injection, schedule: Q01DX009 (ip), vehicle: saline with Tween-80
[5] = dose: 50.0 mg/kg/injection, schedule: Q01DX009 (ip), vehicle: Klucel (hydroxypropylcellulose) (HPC)
[6] = dose: 100.0 mg/kg/injection, schedule: Q01DX009 (ip), vehicle: Klucel (hydroxypropylcellulose) (HPC)
[7] = dose: 50.0 mg/kg/injection, schedule: Q01DX005 (ip), vehicle: Klucel (hydroxypropylcellulose) (HPC)
[8] = dose: 100.0 mg/kg/injection, schedule: Q01DX005 (ip), vehicle: Klucel (hydroxypropylcellulose) (HPC)
[9] = dose: 200.0 mg/kg/injection, schedule: Q01DX005 (ip), vehicle: Klucel (hydroxypropylcellulose) (HPC)
[10] = dose: 12.5 mg/kg/injection, schedule: Q01DX005 (ip), vehicle: Klucel (hydroxypropylcellulose) (HPC)
[11] = dose: 60.0 mg/kg/injection, schedule: Q01DX005 (ip), vehicle: saline with Tween-80
[12] = dose: 120.0 mg/kg/injection, schedule: Q01DX005 (ip), vehicle: saline with Tween-80
[13] = dose: 200.0 mg/kg/injection, schedule: Q01DX009 (ip), vehicle: saline with Tween-80
[14] = dose: 100.0 mg/kg/injection, schedule: Q04DX003 (ip), vehicle: saline with Tween-80
[15] = dose: 200.0 mg/kg/injection, schedule: Q04DX003 (ip), vehicle: saline with Tween-80

SMILES: O=C1C(C(=NCCO)c2ccccc2)=C(O)c2ccccc21
- T/C (dose: 25.0 mg/kg/injection, schedule: Q04DX002 (ip), vehicle: saline with Tween-80): 90 % of control
- T/C (dose: 50.0 mg/kg/injection, schedule: Q04DX002 (ip), vehicle: saline with Tween-80): 101 % of control
- T/C (dose: 100.0 mg/kg/injection, schedule: Q04DX002 (ip), vehicle: saline with Tween-80): 89 % of control

SMILES: Cc1cc(Cl)ccc1NC(=O)Oc1nc2ccccc2o1
- T/C [1]: 104 % of control and 96 % of control
- T/C [2]: 99 % of control and 101 % of control
- T/C [3]: 111 % of control and 96 % of control
- T/C [4]: 101 % of control and 112 % of control

SMILES: CCCCN1C(=O)C(=O)N(Cc2ccco2)C1=O
- T/C [5]: 98 % of control
- T/C [6]: 104 % of control
- T/C (dose: 200.0 mg/kg/injection, schedule: Q01DX009 (ip), vehicle: Klucel (hydroxypropylcellulose) (HPC)): 106 % of control

SMILES: NC(CSSCC(N)C(=O)NCC(=O)O)C(=O)NCC(=O)O (centres undefined)
- T/C (dose: 50.0 mg/kg/injection, schedule: Q01DX005 (ip), vehicle: saline): 106 % of control
- T/C (dose: 100.0 mg/kg/injection, schedule: Q01DX005 (ip), vehicle: saline): 100 % of control
- T/C (dose: 200.0 mg/kg/injection, schedule: Q01DX005 (ip), vehicle: saline): 104 % of control

SMILES: C=C1C(=O)C23[C@H](O)C1CC[C@H]2[C@]12COC3(O)[C@@H](O)[C@@H]1C(C)(C)CC[C@@H]2O
- T/C (dose: 6.25 mg/kg/injection, schedule: Q01DX009 (ip), vehicle: saline with Tween-80): 113 % of control
- T/C (dose: 8.0 mg/kg/injection, schedule: Q01DX009 (ip), vehicle: saline with Tween-80): 106 % of control
- T/C (dose: 9.0 mg/kg/injection, schedule: Q01DX009 (ip), vehicle: saline with Tween-80): 117 % of control
- T/C [1]: 104 % of control
- T/C [2]: 104 % of control
- T/C (dose: 27.0 mg/kg/injection, schedule: Q01DX009 (ip), vehicle: saline with Tween-80): 121 % of control

SMILES: O=C1C=C/C(=C\c2ccc(Cl)cc2)O1
- T/C (dose: 100.0 mg/kg/injection, schedule: Q04DX002 (ip), vehicle: Klucel (hydroxypropylcellulose) (HPC)): 99 % of control
- T/C (dose: 200.0 mg/kg/injection, schedule: Q04DX002 (ip), vehicle: Klucel (hydroxypropylcellulose) (HPC)): 107 % of control
- T/C (dose: 400.0 mg/kg/injection, schedule: Q04DX002 (ip), vehicle: Klucel (hydroxypropylcellulose) (HPC)): 96 % of control

SMILES: COc1ccc(C(O)c2cc(C(F)(F)F)cc(C(F)(F)F)c2)cc1OC (centres undefined)
- T/C [7]: 100 % of control
- T/C [8]: 92 % of control
- T/C [9]: 91 % of control

SMILES: O=C(O)CC(O)CCO (centres undefined)
- T/C (dose: 100.0 mg/kg/injection, schedule: Q01DX001 (ip), vehicle: saline): 104 % of control
- T/C (dose: 200.0 mg/kg/injection, schedule: Q01DX001 (ip), vehicle: saline): 103 % of control
- T/C (dose: 400.0 mg/kg/injection, schedule: Q01DX001 (ip), vehicle: saline): 101 % of control

SMILES: N#CCCN(C(=S)Nc1ccc(F)cc1)N1CCCCCC1
- T/C (dose: 100.0 mg/kg/injection, schedule: Q04DX003 (ip), vehicle: saline): 100 % of control
- T/C (dose: 200.0 mg/kg/injection, schedule: Q04DX003 (ip), vehicle: saline): 107 % of control
- T/C (dose: 400.0 mg/kg/injection, schedule: Q04DX003 (ip), vehicle: saline): 98 % of control

SMILES: Nc1cccc(SC2CC(=O)N(c3ccc4c(c3)OCO4)C2=O)c1 (centres undefined)
- T/C (dose: 100.0 mg/kg/injection, schedule: Q04DX003 (ip), vehicle: Klucel (hydroxypropylcellulose) (HPC)): 92 % of control
- T/C (dose: 200.0 mg/kg/injection, schedule: Q04DX003 (ip), vehicle: Klucel (hydroxypropylcellulose) (HPC)): 101 % of control

SMILES: C=C(Cl)C(=NC1CCCCC1)NC(C)(C)C
- T/C (dose: 0.79 mg/kg/injection, schedule: Q01DX005 (ip), vehicle: Klucel (hydroxypropylcellulose) (HPC)): 97 % of control
- T/C (dose: 1.56 mg/kg/injection, schedule: Q01DX005 (ip), vehicle: Klucel (hydroxypropylcellulose) (HPC)): 101 % of control and 107 % of control
- T/C (dose: 3.12 mg/kg/injection, schedule: Q01DX005 (ip), vehicle: Klucel (hydroxypropylcellulose) (HPC)): 104 % of control and 107 % of control and 109 % of control
- T/C (dose: 6.25 mg/kg/injection, schedule: Q01DX005 (ip), vehicle: Klucel (hydroxypropylcellulose) (HPC)): 116 % of control
- T/C [10]: 110 % of control

SMILES: O=C(Nc1ccc(Cl)cc1)Nc1nnc2nc(C(C(=O)c3cccs3)c3nc4nnc(NC(=O)Nc5ccc(Cl)cc5)n4[nH]c3=O)c(=O)[nH]n12
- T/C [11]: 91 % of control
- T/C [12]: 94 % of control

SMILES: c1ccc(/C(=N\Nc2ccc3ccccc3n2)c2ccccn2)cc1
- T/C (dose: 50.0 mg/kg/injection, schedule: Q01DX005 (ip), vehicle: saline with Tween-80): 110 % of control
- T/C (dose: 100.0 mg/kg/injection, schedule: Q01DX005 (ip), vehicle: saline with Tween-80): 94 % of control
- T/C (dose: 200.0 mg/kg/injection, schedule: Q01DX005 (ip), vehicle: saline with Tween-80): 100 % of control

SMILES: O=S(=O)(c1ccccc1)N1CN2CCN(C2)C1
- T/C [3]: 123 % of control
- T/C [13]: 150 % of control

SMILES: Nc1nc(Cl)c(Cl)nc1N
- T/C [3]: 110 % of control
- T/C (dose: 50.0 mg/kg/injection, schedule: Q04DX003 (ip), vehicle: saline with Tween-80): 100 % of control
- T/C [4]: 105 % of control
- T/C [14]: 100 % of control
- T/C [13]: 110 % of control
- T/C [15]: 95 % of control

SMILES: CCCCCOP(=O)(N=[N+]=[N-])OCCCCC
- T/C (dose: 0.78 mg/kg/injection, schedule: Q01DX009 (ip), vehicle: saline with Tween-80): 98 % of control
- T/C (dose: 1.56 mg/kg/injection, schedule: Q01DX009 (ip), vehicle: saline with Tween-80): 98 % of control

SMILES: Oc1c(CN2CCCC2)cc(Nc2cc(/C=C/c3ccc(Cl)cc3)nc(/C=C\c3ccc(Cl)cc3)n2)cc1CN1CCCC1
- T/C (dose: 0.62 mg/kg/injection, schedule: Q01DX009 (ip), vehicle: saline with Tween-80): 103 % of control
- T/C (dose: 1.25 mg/kg/injection, schedule: Q01DX009 (ip), vehicle: saline with Tween-80): 112 % of control
- T/C (dose: 2.5 mg/kg/injection, schedule: Q01DX009 (ip), vehicle: saline with Tween-80): 105 % of control
- T/C (dose: 5.0 mg/kg/injection, schedule: Q01DX009 (ip), vehicle: saline with Tween-80): 106 % of control
- T/C (dose: 10.0 mg/kg/injection, schedule: Q01DX009 (ip), vehicle: saline with Tween-80): 92 % of control

SMILES: CC[n+]1cccc2ccccc21
- T/C [14]: 101 % of control
- T/C [15]: 94 % of control

SMILES: O=c1[nH]c2cc(Cl)ccc2nc1/C=C(\O)c1ccccc1O
- T/C [11]: 86 % of control and 95 % of control
- T/C [12]: 92 % of control
- T/C (dose: 240.0 mg/kg/injection, schedule: Q01DX005 (ip), vehicle: saline with Tween-80): 89 % of control and 96 % of control

SMILES: c1c[n+](CC2CO2)ccc1-c1cc[n+](CC2CO2)cc1 (centres undefined)
- T/C (dose: 25.0 mg/kg/injection, schedule: Q01DX009 (ip), vehicle: Klucel (hydroxypropylcellulose) (HPC)): 120 % of control
- T/C (dose: 40.0 mg/kg/injection, schedule: Q01DX009 (ip), vehicle: Klucel (hydroxypropylcellulose) (HPC)): 162 % of control
- T/C [5]: 163 % of control
- T/C (dose: 80.0 mg/kg/injection, schedule: Q01DX009 (ip), vehicle: Klucel (hydroxypropylcellulose) (HPC)): 159 % of control
- T/C [6]: 161 % of control

SMILES: CCC1(O)CCC2C3CC=C4CCCCC4C3CCC21C (centres undefined)
- T/C (dose: 50.0 mg/kg/injection, schedule: Q01DX009 (ip), vehicle: saline): 107 % of control
- T/C (dose: 100.0 mg/kg/injection, schedule: Q01DX009 (ip), vehicle: saline): 100 % of control
- T/C (dose: 200.0 mg/kg/injection, schedule: Q01DX009 (ip), vehicle: saline): 100 % of control

SMILES: Cc1nc(N)[nH]c(=O)c1CCCNc1ccc(C(=O)NC(CCC(=O)O)C(=O)O)cc1 (centres undefined)
- T/C [7]: 100 % of control
- T/C [8]: 97 % of control
- T/C [9]: 100 % of control

SMILES: CCOC(=O)NC(N)=O
- T/C [3]: 91 % of control
- T/C [4]: 89 % of control
- T/C [13]: 89 % of control
- T/C (dose: 400.0 mg/kg/injection, schedule: Q01DX009 (ip), vehicle: saline with Tween-80): 97 % of control

SMILES: N=c1nc(N)nc2c3ccccc3nnn12
- T/C (dose: 15.0 mg/kg/injection, schedule: Q01DX005 (ip), vehicle: saline with Tween-80): 109 % of control
- T/C (dose: 30.0 mg/kg/injection, schedule: Q01DX005 (ip), vehicle: saline with Tween-80): 109 % of control
- T/C [11]: 106 % of control and 109 % of control

SMILES: Cc1cccc(C)c1-n1c(C)nc2[nH]cc(C)c2c1=N
- T/C [10]: 99 % of control
- T/C (dose: 25.0 mg/kg/injection, schedule: Q01DX005 (ip), vehicle: Klucel (hydroxypropylcellulose) (HPC)): 97 % of control
- T/C [7]: 100 % of control and 97 % of control

Source: PubChem BioAssay AID330 (DTP/NCI, 2004)
